According to PubChem BioAssay AID687032 (Broad Institute, 2013):
Results filed as inconclusive are left out.

Each molecule was assayed on IOSE-T80 viability, CellTiterGlo ATP luminescence, 96 h (assay: IOSE-T80 viability loss, PAX8-independent line – cell-based, cherry-pick, selectivity assay for PAX8 inhibitor project, dose response (AID 687032)).

Row | Structure (SMILES) | AC50 [nM]
1 | C[C@@H]1CCCCO[C@H](CN(C)Cc2ccc(C(F)(F)F)cc2)[C@H](C)CN([C@@H](C)CO)C(=O)c2cc(NS(=O)(=O)c3cccs3)ccc2O1 | 33500
2 | C[C@@H]1CN([C@H](C)CO)C(=O)c2cc(NC(=O)Nc3ccc(C(F)(F)F)cc3)ccc2O[C@@H](C)CCCCO[C@H]1CN(C)Cc1ccccc1 | < 260
3 | COc1cccc(S(=O)(=O)N2CC[C@H]3[C@@H](CO)N(C)c4ccc(C#Cc5ccc(F)cc5)cc4[C@H]32)c1 | 34500
4 | CCN(CC)S(=O)(=O)c1cc(NC(=O)Cn2ncc(Cl)c(Cl)c2=O)ccc1C | < 260
5 | N#Cc1ccc(-c2ccc(C3[C@@H]4CN(C(=O)C5CC5)C[C@H]3N4)cc2)cc1 (stereo not given in full) | < 260
6 | S=c1sc2c(Cl)ncnc2n1-c1ccccc1 | < 260
7 | Cn1ncc2c(O/N=C(\N)c3ccc(C(F)(F)F)cc3)ncnc21 | < 260
8 | COCCn1c(C)cc(C2=NNC(=NC3CC3)SC2)c1C | < 260
9 | COc1cc(OC)c2c(-c3cccc(-c4ccc(OC)c(F)c4)c3)cc(=O)oc2c1 | 10700
10 | COc1ccc(NC(=O)c2c(Nc3ccccc3)sc(C(=O)c3ccc(F)cc3)c2N)cc1 | < 260
11 | COc1ccc(CCNc2nnc(Sc3nnnn3-c3ccccc3)s2)cc1OC | 8840
12 | O=C1CN(C(=O)Cn2ncc(Cl)c(Cl)c2=O)c2ccccc2N1 | < 260
13 | CCN1CCN(c2nc(-c3cccs3)nc3ccccc23)CC1 | 10400
14 | O=C(C(=O)N(Cc1ccccc1)Cc1ccccc1)c1c(-c2ccccc2)[nH]c2ccccc12 | < 260
15 | CN1c2ccc(-c3cccc(F)c3)cc2[C@@H]2[C@@H](CCN2C(=O)Cc2ccccc2)[C@@H]1CO | < 260
16 | C[C@@H]1CCCCO[C@@H](CN(C)S(=O)(=O)c2ccc(Cl)cc2)[C@H](C)CN([C@H](C)CO)C(=O)c2cc(NS(=O)(=O)c3ccc(F)cc3)ccc2O1 | < 260
17 | COc1ccc(S(=O)(=O)Nc2ccc3c(c2)C(=O)N([C@@H](C)CO)C[C@H](C)[C@@H](CN(C)Cc2ccc(C(F)(F)F)cc2)OCCCC[C@H](C)O3)cc1 | < 260
18 | C[C@@H]1CN([C@@H](C)CO)C(=O)Cc2cc(NC(=O)NC3CCCCC3)ccc2O[C@@H]1CN(C)Cc1ccc(-c2ccccc2)cc1 | 27800
19 | O=c1cc(-c2ccccc2)oc2ccc3ccccc3c12 | < 260
20 | COc1ccc(-c2nc3c(c(SCC(=O)Nc4cccc(O)c4)n2)Cc2c(CO)cnc(C)c2O3)cc1 | 8550
21 | O=S(=O)(c1ccccc1F)N1CC[C@@H]2[C@@H](CO)Nc3ccc(C4=CCCCC4)cc3[C@@H]21 | < 260
22 | Cc1noc(C)c1S(=O)(=O)Nc1ccc2c(c1)C(=O)N([C@H](C)CO)C[C@H](C)[C@@H](CN(C)C(=O)Nc1ccc(C(F)(F)F)cc1)OCCCC[C@H](C)O2 | 23300
23 | Cc1ccc(S(=O)(=O)Nc2ccc3c(c2)CC(=O)N([C@H](C)CO)C[C@H](C)[C@H](CN(C)S(=O)(=O)c2ccc(F)cc2)O3)cc1 | < 260
24 | C[C@@H]1CN([C@H](C)CO)C(=O)c2cc(NS(=O)(=O)c3ccc(Cl)cc3)ccc2O[C@@H](C)CCCCO[C@@H]1CN(C)Cc1ccccc1 | < 260
25 | Cc1ccc(Cl)cc1N1CCN(C(=O)c2noc(C)c2[N+](=O)[O-])CC1 | < 260
26 | Cc1ccc(NC(=O)CN(C)C(=O)Cn2ncc(Cl)c(Cl)c2=O)cc1 | < 260
27 | COc1cccc(N2CCN(C(=O)c3ccc(CS(=O)c4ccccc4Cl)o3)CC2)c1 (stereo not given) | < 260
28 | Cc1ccc(S(=O)(=O)Nc2ccc3c(c2)C(=O)N([C@H](C)CO)C[C@@H](C)[C@H](CN(C)Cc2ccc(C(F)(F)F)cc2)OCCCC[C@@H](C)O3)cc1 | < 260
29 | O=C(NC1CCCCC1)C(c1cccnc1)N(C(=O)CCl)c1ccc(F)cc1 (stereo not given) | 10200
30 | C[C@@H]1CCCCO[C@@H](CN(C)C(=O)Nc2cccc3ccccc23)[C@H](C)CN([C@H](C)CO)C(=O)c2cc(NS(=O)(=O)c3ccc(F)cc3)ccc2O1 | < 260
